Series [1] has as its system Partially purified enzymes derived from known microorganisms of the genus Thermus. The series is described as follows: Action on saccharides, partially purified enzymes. The class given is biochemical. To be noted: method of Experiment 18. On the procedure:
A variety of saccharides were tested for determining whether they could be used as a substrate for the present enzyme from Thermus aquaticus (ATCC 33923), obtained in accordance with the method in Experiment 4 except for setting the reaction temperature to 50° C. Similarly as the enzymes from Pimelobacter sp.
Among conventional microorganisms, a microorganism which had been confirmed its ability to form the present maltose-trehalose converting enzyme was incubated in an Erlenmeyer flask for 48 hours in accordance with Experiment 15. After analyzed the enzyme activity, the resultant culture was subjected to a cell disrupting apparatus in accordance with Experiment 16. From the resultant mixture a supernatant was prepared and dialyzed to obtain a partially purified enzyme, followed by analyzing the property in accordance with Experiment 17.
Partially purified enzymes derived from known microorganisms of the genus Thermus as shown in Table 12 were studied on their action on a variety of saccharides in accordance with the method in Experiment 18.

The target of series [2] is enzyme from Pseudomonas putida H262 (Pseudomonas putida, UniProt Q88FN0). The series is described as follows: Action on saccharides (TLC), 35° C. Format: biochemical. On the procedure: A variety of saccharides were tested for determining whether they could be used as a substrate for the present enzyme.
Sequence of enzyme from Pseudomonas putida H262 (Q88FN0 entry or part of it): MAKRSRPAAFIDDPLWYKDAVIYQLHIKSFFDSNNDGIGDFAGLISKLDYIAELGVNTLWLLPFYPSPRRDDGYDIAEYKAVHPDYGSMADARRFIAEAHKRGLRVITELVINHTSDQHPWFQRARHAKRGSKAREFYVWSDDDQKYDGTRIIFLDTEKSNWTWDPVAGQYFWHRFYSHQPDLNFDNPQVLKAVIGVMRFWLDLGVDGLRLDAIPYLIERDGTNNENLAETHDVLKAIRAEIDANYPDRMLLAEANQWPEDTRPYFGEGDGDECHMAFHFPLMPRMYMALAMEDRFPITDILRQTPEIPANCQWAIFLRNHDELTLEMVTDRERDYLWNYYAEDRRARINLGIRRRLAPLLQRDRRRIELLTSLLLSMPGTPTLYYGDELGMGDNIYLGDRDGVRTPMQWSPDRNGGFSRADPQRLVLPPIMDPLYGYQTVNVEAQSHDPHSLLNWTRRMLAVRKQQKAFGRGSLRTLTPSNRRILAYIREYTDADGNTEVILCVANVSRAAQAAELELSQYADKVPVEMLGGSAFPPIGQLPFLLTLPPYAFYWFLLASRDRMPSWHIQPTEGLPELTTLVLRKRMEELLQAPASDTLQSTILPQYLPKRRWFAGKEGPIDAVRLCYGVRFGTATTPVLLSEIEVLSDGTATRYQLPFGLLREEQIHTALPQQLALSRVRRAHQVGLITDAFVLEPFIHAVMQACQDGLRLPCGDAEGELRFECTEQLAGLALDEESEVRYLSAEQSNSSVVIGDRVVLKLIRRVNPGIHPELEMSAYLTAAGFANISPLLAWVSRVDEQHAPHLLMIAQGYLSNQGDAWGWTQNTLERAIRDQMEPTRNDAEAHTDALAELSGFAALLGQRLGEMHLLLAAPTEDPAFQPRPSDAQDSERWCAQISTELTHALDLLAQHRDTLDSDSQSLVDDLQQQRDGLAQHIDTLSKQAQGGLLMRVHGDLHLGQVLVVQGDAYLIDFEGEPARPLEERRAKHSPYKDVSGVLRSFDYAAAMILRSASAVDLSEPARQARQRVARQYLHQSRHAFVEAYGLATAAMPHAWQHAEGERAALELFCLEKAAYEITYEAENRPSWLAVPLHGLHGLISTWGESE
(§1) The solutions were respectively mixed with 2 units/g substrate, d.s.b., of a maltose-trehalose converting enzyme obtained by the method in Experiment 2, adjusted their substrate concentrations to 5 w/v %, and subjected to enzymatic reaction at 20° C. and pH 7.0 for 24 hours. The solutions before and after their enzymatic reactions were subjected to thin layer chromatography (TLC) using "[…] 60 (20×20 cm)", an aluminum plate for TLC commercialized by Merck & Co., Inc., Rahway, USA, for determining whether the present enzyme acts on the saccharides. The resultant products were developed once on the plates by using a developing solvent system of 1-butanol, pyridine and water (=6:4:1 by volume). The products on the plates were colored by spraying thereto a 20 v/v % sulfuric acid in methanol, and heating the plates at 110° C. for 10 min.
A variety of saccharides were tested for determining whether they could be used as a substrate for the present enzyme from Pseudomonas putida H262 obtained in Experiment 10 in accordance with the method in Experiment 4 except for setting the reaction temperature to 35° C. Similarly as the enzyme from Pseudomonas putida H262, the enzyme from Pimelobacter sp.

The target of series [3] is T1, maltose-trehalose converting enzyme derived from Pimelobacter sp. R48 (Pimelobacter sp., UniProt P72235).
T1 construct: The culture obtained in Experiment 1 was centrifuged to obtain an about 0.5 kg wet cells; endogenous in cells; host or cells: Pimelobacter sp; R48 (FERM BP-4315), enzyme purified from the disrupted wild-type cells
T1 sequence (P72235 1-573): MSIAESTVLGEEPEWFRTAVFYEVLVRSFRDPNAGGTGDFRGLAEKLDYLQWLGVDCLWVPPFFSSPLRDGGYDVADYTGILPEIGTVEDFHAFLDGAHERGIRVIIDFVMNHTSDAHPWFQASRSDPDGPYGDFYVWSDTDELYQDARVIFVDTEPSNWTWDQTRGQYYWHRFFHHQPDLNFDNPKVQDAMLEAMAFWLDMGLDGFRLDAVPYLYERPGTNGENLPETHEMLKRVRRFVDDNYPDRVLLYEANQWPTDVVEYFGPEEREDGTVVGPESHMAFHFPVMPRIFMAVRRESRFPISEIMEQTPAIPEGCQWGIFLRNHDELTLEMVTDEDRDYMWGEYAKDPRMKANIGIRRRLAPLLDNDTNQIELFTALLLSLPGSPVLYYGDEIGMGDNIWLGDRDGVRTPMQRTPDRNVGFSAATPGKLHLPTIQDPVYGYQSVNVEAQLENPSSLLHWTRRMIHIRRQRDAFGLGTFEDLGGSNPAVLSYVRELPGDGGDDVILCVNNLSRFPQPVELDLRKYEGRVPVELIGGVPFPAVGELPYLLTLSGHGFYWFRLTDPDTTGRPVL
The series is described as follows: Action on saccharides (TLC before and after enzymatic reaction). Format: biochemical. To be noted: 20° C., pH 7.0, 24 hours. On the procedure: A variety of saccharides were tested for determining whether they could be used as a substrate for the present enzyme. Glucose, maltose, maltotriose,maltotetraose, maltopentaose, maltohexaose, maltoheptaose, soluble starch, amylose having an average polymerization degree of 18, trehalose, neotrehalose, gentiobiose, kojibiose, isomaltose, cellobiose, maltitol, sucrose, maltulose, turanose, paratinose, trehalulose or lactose was prepared into a solution. A solution containing glucose and the equal amount of α-glucose 1-phosphate or β-glucose 1-phosphate was prepared.
as §1

Series [4] can be described thus: Utilization test in vivo (blood sugar- and insulin-levels after oral administration). To be noted: 30 g as 20 w/v % aqueous solution, orally, healthy male volunteers. On the procedure: In accordance with the method as reported by H. Atsuji et al. in Journal of Clinical Nutrition, Vol.41, No.2, pp.200-208 (1972), 30 g of the high-purity trehalose specimen with a purity of 99.8%, d.s.b., in Experiment 8 was prepared into a 20 w/v % aqueous solution which was then orally administered to 3 healthy male volunteers, and their bloods were sampled at prescribed time intervals, followed by the measurements of the blood sugar- and insulin-levels. As a control glucose was used. […] Thus, the present trehalose and saccharide composition containing the same are suitably used as an energy-supplementing saccharide.

Series [5] is described as follows: Physicochemical property of trehalose: solubility in water. The settings on record: at 25° C., for anhydrous trehalose. On the procedure: A high-purity trehalose specimen prepared by the method in Experiment 8 was studied on its physicochemical property. As a result, the melting point was determined as 97.0° C., the specific rotation was [α]D^20 +199° […].
The test system of series [6] is mice. Put plainly: Acute toxicity test, oral. The class given is in vivo. The settings on record: highest level of dose administrable. On the procedure:
(§2) By using mice, the high-purity trehalose specimen with a purity of 99.8%, d.s.b., prepared in Experiment 8 was orally administered to the mice for its acute toxicity test. […] Though it is not so accurate, the LD50 was determined to be 50 g/kg or higher.

The nature of series [7]: Acute toxicity test, oral. Format: in vivo. To be noted: mouse, in vivo, mice, not so accurate. On the procedure:
as §2

Broadly, the LD50 is the dose expected to kill half of the subjects tested. A low value points to a more toxic substance.

For the molecule `OC[C@H]1O[C@H](O[C@H]2[C@H](O)[C@@H](O)[C@H](O)O[C@@H]2CO)[C@H](O)[C@@H](O)[C@@H]1O` [Maltose], the results for the “action of enzyme on saccharide” value in series [1], in series [2] and in series [3] were “specifically acted on”, “specifically acted on” and “only acts on”, respectively. Moreover, in series [3] (2 units/g substrate, substrate 5 w/v %), the Action of enzyme result is given as “+ +”.
Consider `OC[C@H]1O[C@H](O[C@H]2O[C@H](CO)[C@@H](O)[C@H](O)[C@H]2O)[C@H](O)[C@@H](O)[C@@H]1O` [Trehalose], for which the “action of enzyme on saccharide” value was “specifically acted on” in series [1], “specifically acted on” in series [2] and “only acts on” in series [3].
For `OC[C@H]1O[C@H](O[C@H]2O[C@H](CO)[C@@H](O)[C@H](O)[C@H]2O)[C@H](O)[C@@H](O)[C@@H]1O` [high-purity trehalose specimen, trehalose], in series [4], the “blood sugar- and insulin-levels compared with glucose control” value is given as “behaved similarly as glucose”; the “time of the maximum of blood sugar-level after the administration” value is 0.5 to 1 h; the “time of the maximum of insulin-level after the administration” value was 0.5 to 1 h. This molecule returned a solubility in water in series [5] of 77.0 g. Moreover, in series [6], the mortality result is reported as “no mouse died”. The 50% lethal dose (LD50) in series [7] was no less than 50000 mg/kg.

The values are drawn from US5736380A, “Maltose-trehalose converting enzyme, and preparation and uses thereof” (Kabushiki Kaisha Hayashibara Seibutsu Kagaku Kenkyujo, priority 1993, dated 1998).
